Reference: patent publication US20230000808A1, “COMPOSITIONS AND METHODS EXCLUDING OR WITH REDUCED GLUTAMINE FOR THE TREATMENT OF HEMOGLOBINOPATHIES AND THALASSEMIAS” (AXCELLA HEALTH INC., priority 2019, published 2023)

Experiments:
[1] = tested on: TNFα; test: LPS-induced TNF-α secretion in primary human monocyte-derived macrophages (ELISA); type: cell-based; settings: for TNF-α Measurements Mean: LPS, baseline subtracted
Description: (§1) Primary human PMBC derived macrophages were seeded on day 0 at 3.0×10^4 cells per well in 96-well microplates (ThermoFisher) in Dulbecco's Modified Eagle Medium (DMEM) (Gibco) supplemented with penicillin-streptomycin (Hyclone) and 10% heat inactivated fetal bovine serum (HI-FBS) (Atlanta Bio) and incubated overnight at 37° C., 5% CO2. On day 1, cells were washed once with 150 μl per well DPBS (Gibco) and treated with 75 μl of: • a. […] The same medium described above with one amino acid at various concentrations including complete dropout. […] On day 3, the supernatant was collected and immediately frozen in −80° C. freezer. Cells were washed once with 150 μl DPBS and viability was assessed using the WST-8 Cell Proliferation Cytotoxicity Assay (Dojindo). […] Protein levels in supernatant samples were analyzed by ELISA for IL-6 and TNFα using commercially available kits (R&D Systems) according to manufacturer-supplied protocols.

[2] = tested on: IL-6; test: LPS-induced IL-6 secretion in primary human monocyte-derived macrophages (ELISA); type: cell-based; parameters: Donor 1 IL-6 Measurements Mean: unit not given here; settings: for Donor 1 IL-6 Measurements Mean / Donor 2 IL-6 Measurements Mean / Donor 3 IL-6 Measurements Mean: LPS, baseline subtracted
Description: as §1

[3] = tested on: IL-6; test: Secreted IL-6 in HLMVEC treated with TNF-α (FirePlex); type: cell-based, human; settings: HLMVEC + 0.5 ng/mL TNF-α, 24 h; amino acids 20x HMDB, Nac/Cit/Car 5 mM as bracketed
Description: (§2) Primary Human Lung Microvascular Endothelial Cells (HLMVEC; Lonza) were seeded at 6,000 cells per well in Endothelial Cell Growth Basal Medium-2 (Lonza) supplemented with Fetal Bovine Serum (FBS; Lonza), human EGF (Lonza), human VEGF (Lonza), R3-Insulin-like Growth Factor-1 (Lonza), ascorbic acid (Lonza), hydrocortisone (Lonza), human FGF-beta (Lonza), and gentamicin/amphotericin-b (Lonza) in a 96-well plate (Thermo Fisher). The cells were incubated for 45 minutes at room temperature, then incubated overnight at 37° C./5% CO2.
(§3) Following overnight incubation, cell were washed once with 150 μL of Dulbecco's phosphate buffered saline (DPBS; Gibco), and then treated with Endothelial Basal Medium MCB-131 (amino acid, glucose, sodium pyruvate, and phenol red free; US Biologicals) containing a defined custom amino acid concentration based on physiological concentrations in blood of patients with SCD (thus recapitulating observed metabolic imbalances such as the depletion of certain essential amino acids including arginine and aspartate and enrichment of certain non-essential amino acids including glutamate and asparagine), dialyzed FBS (Hyclone), human EGF (Lonza), human VEGF (Lonza), R3-Insulin-like Growth Factor-1 (Lonza), ascorbic acid (Lonza), hydrocortisone (Lonza), human FGF-beta (Lonza), and gentamicin/amphotericin-b (Lonza), glucose, 10 mM HEPES, sodium pyruvate, and sodium bicarbonate supplemented with one of the following: • a. PBS (vehicle control), • b. 0.5 ng/mL Tumor Necrosis Factor alpha (TNFα) and PBS, or; • c. 0.5 ng/mL TNF-α and amino acid treatments at 20× mean physiological concentrations in plasma based on values published in the Human Metabolome Database (HMDB) in PBS.
Supernatants were analyzed for IL-6 concentrations using a Human Cytokines FirePlex-HT Panel 1 kit (abcam) according to the manufacturer-supplied instructions. Particles were imaged on a high content imager (Molecular Devices), and results were interpolated from a standard curve with FirePlex Analysis Workbench Software (abcam) according manufacturer's recommendations.

[4] = tested on: HLMVEC; test: META-rank score, composite of VCAM1, ICAM1 and IL6 in the HLMVEC model; type: cell-based, human; settings: HLMVEC + TNF-α; lower score = more optimal; 20x HMDB / 5 mM
Description: The ability of single amino acids and combinations to simultaneously impact these phenotypes was measured by a META-rank score (Tables 17 and 18). META-rank score is a composite measure that considers the optimal impact on all 3 phenotypes (e.g. decrease VCAM1, ICAM1, and IL6) in the HLMVEC model.

[5] = tested on: VCAM-1; test: VCAM-1 cell integrated intensity in HLMVEC treated with TNF-α (immunofluorescence); type: cell-based, human; settings: HLMVEC + 0.5 ng/mL TNF-α, 24 h; amino acids 20x HMDB, Nac/Cit/Car 5 mM as bracketed
Description: as §2, §3
(§4) After 24 hours of treatment, cells were washed once with 150 μL of DPBS (Gibco), then fixed with 4% paraformaldehyde. Following fixation, cells were stained with anti-ICAM-1 [MEM-111] (mouse IgG2a anti-human; abcam) and anti-VCAM1 [1.4C3] (mouse IgG1, K anti-human; abcam) primary antibodies at 1000×, and 100× dilutions respectively. Cells were then stained with Goat anti-Mouse IgG2a Cross-Adsorbed Secondary Antibody, Alexa Fluor 594 (Invitrogen) and Goat anti-Mouse IgG1 Cross-Adsorbed Secondary Antibody, Alexa Fluor 647 (Invitrogen) secondary antibodies. Nuclei were stained with Hoechst 3342 (Life Technologies).
(§5) Antibody binding was detected by fluorescence microscopy using a high content imager (Molecular Devices). Images were analyzed using MetaXpress 6 software to determine the integrated intensity per cell for each wavelength corresponding to ICAM-1 or VCAM-1.

[6] = tested on: ICAM-1; test: ICAM-1 cell integrated intensity in HLMVEC treated with TNF-α (immunofluorescence); type: cell-based, human; settings: HLMVEC + 0.5 ng/mL TNF-α, 24 h; amino acids 20x HMDB, Nac/Cit/Car 5 mM as bracketed
Description: as §2, §3, §4, §5

[7] = Donor 2, Conc. 153 μM (baseline)
[8] = Donor 2, Conc. 234 μM (baseline)

CC(C)C[C@H](N)C(=O)O [Leucine]
TNF-α Measurements Mean ([1]; Donor 1, Conc. 153 μM (baseline)): 0
TNF-α Measurements Mean ([1]; Donor 1, Conc. 3054 μM): 42.04
TNF-α Measurements Mean ([1]; Donor 1, Conc. 7635 μM): −23.04
TNF-α Measurements Mean ([1]; Donor 1, Conc. 15270 μM): −46.21
TNF-α Measurements Mean [1, 7]: 0
TNF-α Measurements Mean ([1]; Donor 2, Conc. 3054 μM): 31.74
TNF-α Measurements Mean ([1]; Donor 2, Conc. 7635 μM): 41.98
TNF-α Measurements Mean ([1]; Donor 2, Conc. 15270 μM): 46.69
effect on LPS-induced TNF-α secretion ([1]; Donor 2, Two Way ANOVA Dunnett): increased
Donor 1 IL-6 Measurements Mean ([2]; Conc. 153 μM (baseline)): 0
Donor 1 IL-6 Measurements Mean ([2]; Conc. 3054 μM): 244.9743
Donor 1 IL-6 Measurements Mean ([2]; Conc. 7635 μM): −69.9873
Donor 1 IL-6 Measurements Mean ([2]; Conc. 15270 μM): 84.46
Donor 2 IL-6 Measurements Mean [2, 7]: 7.11E−15
Donor 2 IL-6 Measurements Mean ([2]; Donor 2, Conc. 3054 μM): 29.61
Donor 2 IL-6 Measurements Mean ([2]; Donor 2, Conc. 7635 μM): 30.46
Donor 2 IL-6 Measurements Mean ([2]; Donor 2, Conc. 15270 μM): 47.6
effect on LPS-induced IL-6 secretion ([2]; Donor 2, Two Way ANOVA Dunnett): increased

NCCCC[C@H](N)C(=O)O [Lys]
Secreted IL6 Median [3]: 0.132
Meta-Rank (Table 18) [4]: 15.5
Metarank (Table 17) [4]: 29
VCAM-1 Cell Integrated Intensity Median [5]: 0.025
ICAM-1 Cell Integrated Intensity Median [6]: 0.064

NCCC[C@H](N)C(=O)O [Orn]
Secreted IL6 Median [3]: −0.378
Meta-Rank (Table 18) [4]: 6.5
Metarank (Table 17) [4]: 11
VCAM-1 Cell Integrated Intensity Median [5]: −0.196
ICAM-1 Cell Integrated Intensity Median [6]: −0.197

N[C@@H](CO)C(=O)O [Ser]
Secreted IL6 Median [3]: −0.153
Meta-Rank (Table 18) [4]: 19
Metarank (Table 17) [4]: 23
VCAM-1 Cell Integrated Intensity Median [5]: 0.139
ICAM-1 Cell Integrated Intensity Median [6]: 0.076

N[C@@H](Cc1c[nH]c2ccccc12)C(=O)O [Trp]
Secreted IL6 Median [3]: −0.357
Meta-Rank (Table 18) [4]: 24
Metarank (Table 17) [4]: 12
VCAM-1 Cell Integrated Intensity Median [5]: 0.162
ICAM-1 Cell Integrated Intensity Median [6]: 0.171

CC(C)[C@H](N)C(=O)O [Val]
Secreted IL6 Median [3]: −0.224
Meta-Rank (Table 18) [4]: 25.5
Metarank (Table 17) [4]: 18
VCAM-1 Cell Integrated Intensity Median [5]: 0.315
ICAM-1 Cell Integrated Intensity Median [6]: 0.167

CC(C)[C@H](N)C(=O)O [Valine]
TNF-α Measurements Mean ([1]; Donor 1, Conc. 234 μM (baseline)): 0
TNF-α Measurements Mean ([1]; Donor 1, Conc. 4684 μM): −40.37
TNF-α Measurements Mean ([1]; Donor 1, Conc. 11710 μM): −41.77
TNF-α Measurements Mean ([1]; Donor 1, Conc. 23420 μM): −14.98
TNF-α Measurements Mean [1, 8]: −4.7E−15
TNF-α Measurements Mean ([1]; Donor 2, Conc. 4684 μM): −0.00221
TNF-α Measurements Mean ([1]; Donor 2, Conc. 11710 μM): −0.835
TNF-α Measurements Mean ([1]; Donor 2, Conc. 23420 μM): −1.251
TNF-α Measurements Mean ([1]; Donor 3, Conc. 234 μM (baseline)): −2.4E−15
TNF-α Measurements Mean ([1]; Donor 3, Conc. 4684 μM): 0.126
TNF-α Measurements Mean ([1]; Donor 3, Conc. 11710 μM): −2.599
TNF-α Measurements Mean ([1]; Donor 3, Conc. 23420 μM): 3.688
Donor 1 IL-6 Measurements Mean ([2]; Conc. 234 μM (baseline)): 0
Donor 1 IL-6 Measurements Mean ([2]; Conc. 4684 μM): −85.9843
Donor 1 IL-6 Measurements Mean ([2]; Conc. 11710 μM): −97.25
Donor 1 IL-6 Measurements Mean ([2]; Conc. 23420 μM): −106.268
Donor 2 IL-6 Measurements Mean [2, 8]: −4.7E−15
Donor 2 IL-6 Measurements Mean ([2]; Donor 2, Conc. 4684 μM): −4.528
Donor 2 IL-6 Measurements Mean ([2]; Donor 2, Conc. 11710 μM): −1.196
Donor 2 IL-6 Measurements Mean ([2]; Donor 2, Conc. 23420 μM): 4.396
Donor 3 IL-6 Measurements Mean ([2]; Conc. 234 μM (baseline)): 4.26E−14
Donor 3 IL-6 Measurements Mean ([2]; Conc. 4684 μM): −30.0609
Donor 3 IL-6 Measurements Mean ([2]; Conc. 11710 μM): −43.8022
Donor 3 IL-6 Measurements Mean ([2]; Conc. 23420 μM): −29.2004
